Consider one molecule from US20250311727A1, “SUBSTITUTED 2-AMINOAZINES AND SALTS THEREOF, AND USE THEREOF AS HERBICIDAL ACTIVE SUBSTANCES” (BAYER AKTIENGESELLSCHAFT, priority 2022, published 2025).

Holding throughout (type): in vivo
The subject of assay [1] is Veronica persica. The assay is described as follows: Post-emergence herbicidal efficacy at 80 g/ha, VERPE. The conditions noted are these: rated visually after about 3 weeks vs untreated controls, 100% = plants have died. The source says:
(§1) Unwanted plants/weeds: • ABUTH: Abutilon theophrasti • ALOMY: Alopecurus myosuroides • AMARE: Amaranthus retroflexus • DIGSA: Digitaria sanguinalis • ECHCG: Echinochloa crus-galli • KCHSC: Kochia scoparia • LOLRI: Lolium rigidum • MATIN: Matricaria inodora • POAAN: Poa annua • POLCO: Polygonum convolvulus • SETVI: Setaria viridis • STEME: Stellaria media • VERPE: Veronica persica • VIOTR: Viola tricolor A. Post-Emergence Herbicidal Efficacy at 320 g/ha
(§2) Seeds of monocotyledonous and dicotyledonous weeds and crop plants were placed in sandy loam in plastic or organic planting pots, covered with soil and cultivated in a greenhouse under controlled growth conditions. 2 to 3 weeks after sowing, the test plants were treated at the one-leaf stage. The compounds of the invention, formulated in the form of wettable powders (WP) or as emulsion concentrates (EC), were then sprayed onto the green parts of the plants as aqueous suspension or emulsion with addition of 0.5% additive at a water application rate of 600 l/ha (converted). After the test plants had been kept in the greenhouse under optimum growth conditions for about 3 weeks, the activity of the preparations was rated visually in comparison to untreated controls. For example, 100% activity=the plants have died, 0% activity=like control plants.
(§3) Tables B1 to B11 below show the effects of selected compounds of the general formula (I) according to Table 1 on various harmful plants and an application rate corresponding to 80 g/ha, which were obtained by the experimental procedure mentioned above.

Assay [2] concerns Viola tricolor. The assay is described as follows: Post-emergence herbicidal efficacy at 80 g/ha, VIOTR. The settings on record: rated visually after about 3 weeks vs untreated controls, 100% = plants have died.
From the text: as §1, §2, §3

Assay [3] deals with Veronica persica. Briefly: Pre-emergence herbicide efficacy at 80 g/ha, VERPE.
From the text: as §1
(§4) Seeds of monocotyledonous and dicotyledonous weed plants and crop plants were placed in plastic or organic planting pots and covered with soil. The compounds of the invention, formulated in the form of wettable powders (WP) or as emulsion concentrates (EC), were then applied to the surface of the covering soil as aqueous suspension or emulsion with addition of 0.5% additive at a water application rate equivalent to 600 l/ha. After the treatment, the pots were placed in a greenhouse and kept under good growth conditions for the test plants. After about 3 weeks, the efficacy of the preparations was scored visually in comparison with untreated controls as percentages. For example, 100% activity=the plants have died, 0% activity=like control plants.
(§5) Tables D1 to D12 below show the effects of selected compounds of the general formula (I) according to Table 1 on various harmful plants and an application rate corresponding to 80 g/ha, which were obtained by the experimental procedure mentioned above.

A further assay deals with Abutilon theophrasti. Briefly: Pre-emergence herbicide efficacy at 80 g/ha, ABUTH. The conditions noted are these: scored visually after about 3 weeks vs untreated controls, 100% = plants have died.
From the text: as §1, §4, §5

The test system of assay [4] is Amaranthus retroflexus. The assay is described as follows: Post-emergence herbicidal efficacy at 80 g/ha, AMARE. The settings on record: rated visually after about 3 weeks vs untreated controls, 100% = plants have died.
From the text: as §1, §2, §3

In assay [5] the test system is Echinochloa crus-galli. Briefly: Post-emergence herbicidal efficacy at 80 g/ha, ECHCG. The settings on record: rated visually after about 3 weeks vs untreated controls, 100% = plants have died.
From the text: as §1, §2, §3

Assay [6] relates to Echinochloa crus-galli. Briefly: Pre-emergence herbicide efficacy at 80 g/ha, ECHCG. The conditions noted are these: scored visually after about 3 weeks vs untreated controls, 100% = plants have died.
From the text: as §1, §4, §5

For the next assay, the system named is Digitaria sanguinalis. The assay is described as follows: Pre-emergence herbicide efficacy at 80 g/ha, DIGSA. The settings on record: scored visually after about 3 weeks vs untreated controls, 100% = plants have died.
From the text: as §1, §4, §5

For assay [7], the system named is Viola tricolor. The assay is described as follows: Pre-emergence herbicide efficacy at 80 g/ha, VIOTR.
From the text: as §1, §4, §5

Another assay has as its system Polygonum convolvulus. Briefly: Pre-emergence herbicide efficacy at 80 g/ha, POLCO. The settings on record: scored visually after about 3 weeks vs untreated controls, 100% = plants have died.
From the text: as §1, §4, §5

In assay [8] the test system is Amaranthus retroflexus. The assay is described as follows: Pre-emergence herbicide efficacy at 80 g/ha, AMARE. The settings on record: scored visually after about 3 weeks vs untreated controls, 100% = plants have died.
From the text: as §1, §4, §5

For a further assay, the system named is Matricaria inodora. Briefly: Pre-emergence herbicide efficacy at 80 g/ha, MATIN. The settings on record: scored visually after about 3 weeks vs untreated controls, 100% = plants have died.
From the text: as §1, §4, §5

A further assay deals with Kochia scoparia. The assay is described as follows: Pre-emergence herbicide efficacy at 80 g/ha, KCHSC. The settings on record: scored visually after about 3 weeks vs untreated controls, 100% = plants have died.
From the text: as §1, §4, §5

For the molecule `Cc1cnc(Nc2cccc(C#N)c2-n2cc(C(F)(F)F)cn2)nc1` [Example 1-39], the “Post-emergence efficacy at 80 g/ha against VERPE in %” value in the assay on Veronica persica [1] is listed as 90%. In addition, the “Post-emergence efficacy at 80 g/ha against VIOTR in %” value with Viola tricolor [2] came out at 80%. In addition, in the assay with Veronica persica [3], the “Pre-emergence efficacy against VERPE” value stood at 90%. Besides, in the assay with Abutilon theophrasti, the “Pre-emergence efficacy at 80 g/ha against ABUTH in %” value came out at 100%. Moreover, the “Post-emergence efficacy at 80 g/ha against AMARE in %” value in the assay on Amaranthus retroflexus [4] is recorded as 80%. Also, the “Post-emergence efficacy at 80 g/ha against ECHCG in %” value with Echinochloa crus-galli [5] is on record as 80%. Moreover, the “Pre-emergence efficacy at 80 g/ha against ECHCG in %” value with Echinochloa crus-galli [6] is on record as 100%. For the same molecule, the “Pre-emergence efficacy at 80 g/ha against DIGSA in %” value in the assay on Digitaria sanguinalis is given as 100%. The “Pre-emergence efficacy against VIOTR” value in the assay on Viola tricolor [7] came to 100%. For the same molecule, the “Pre-emergence efficacy at 80 g/ha against POLCO in %” value with Polygonum convolvulus stood at 90%. The “Pre-emergence efficacy at 80 g/ha against AMARE in %” value in the assay with Amaranthus retroflexus [8] was found to be 100%. In addition, the “Pre-emergence efficacy at 80 g/ha against MATIN in %” value in the assay with Matricaria inodora was 100%. The “Pre-emergence efficacy at 80 g/ha against KCHSC in %” value in the assay on Kochia scoparia came out at 90%.
